The values that follow come from patent US4568490A, “Aminopropylaminobleomycin derivatives and process for preparation thereof” (Zaidan Hojin Biseibutsu Kagaku Kenkyu Kai, priority 1981, dated 1986).

The subject of data set [1] is Mycobacterium smegmatis ATCC 607. Kind of data set: Antimicrobial activity, agar plate-cylinder method. Particulars: Cu-free form; bleomycin A2 (Cu-free form) standard assumed 1,000 mcg/mg. The format is cell-based. As for the experimental part: (§1) The activity was assayed against the above test microorganisms by the method of agar plate-cylinder, assuming the potency of bleomycin A2 (Cu-free form), used as standard, to be 1,000 mcg/mg.

A further data set relates to ICR strain mice. As to the kind of experiment: Pulmonary toxicity (pulmonary fibrosis) in mice, intraperitoneal injection. The format is in vivo. Particulars: 5 mg/kg i.p. once a day for 10 days; for Grade of pulmonary fibrosis, % / Incidence of pulmonary fibrosis, % / Incidence: number of mice suffering from pulmonary fibrosis / Grade: total score of pulmonary fibrosis/total number of test animal: autopsy after 5 weeks; for Incidence: number of mice suffering from pulmonary fibrosis: affected/total mice; for Grade: total score of pulmonary fibrosis/total number of test animal: score 0-6 points; for Grade of pulmonary fibrosis, Ratio / Incidence of pulmonary fibrosis, Ratio: reference of the ratio not stated. As for the experimental part: (3) Pulmonary toxicity (pulmonary fibrosis) in mice.
ICR strain mice (male; 15 weeks old; 9 mice per group) were used. Each mouse was administered with a daily dose of 5 mg/kg of the test sample by intraperitoneal injection, once a day, for 10 consecutive days. After completion of the predetermined administration, the mice were kept for 5 weeks under observation, then slaughtered, and autopsied to examine the incidence and grade of pulmonary fibrosis. The evaluation was made by comparing the number of administered mice suffering from pulmonary fibrosis and the grade of the disease.
In Tables 4A and 4B, the grade was numerically rated as follows:
1 point: Accumulation of exudate in pulmonary alveoli and fibrosis-like change in alveolar septum.
2 points: Fibrosis in several areas.
4 points: Scattered fibrosis.
6 points: Fibrosis in more than two-thirds of the total area.

The test system of a further data set is Bacillus subtilis. Kind of data set: Antimicrobial activity, agar plate-cylinder method. It counts as cell-based. Particulars: Cu-free form; bleomycin A2 (Cu-free form) standard assumed 1,000 mcg/mg. As to the method:
(1) Antimicrobial activity against Mycobacterium smegmatis ATCC 697 and Bacillus subtilis.
as §1

In another data set the test system is Hela S3 cells. As to the kind of experiment: Growth inhibitory activity against Hela S3 cells. It counts as cell-based. Particulars: Cu-free form; Hela S3, 3 days incubation with compound. As for the experimental part: The percentage growth inhibition was calculated using the equation: […] wherein A is the ultimate number of cells on the third day from the addition of a test sample, B is the ultimate number of cells in the control (without the addition of test sample), and C is the number of cells on the day of addition of the test sample.

As to `Cc1c(N)nc(C(CC(N)=O)NCC(N)C(N)=O)nc1C(=O)NC(C(=O)NC(C)C(O)C(C)C(=O)NC(C(=O)NCCc1nc(-c2nc(C(=O)NCCCN(C)CCCNCCc3ccc(Cl)cc3)cs2)cs1)C(C)O)C(OC1OC(CO)C(O)C(O)C1OC1OC(CO)C(O)C(OC(N)=O)C1O)c1cnc[nH]1` (stereo not drawn) [compound 1, 3-{N--Methyl-N--[3'-(2"-p-chlorophenylethylamino)propyl]amino}propylaminoBLM], the “Antimicrobial potency of Cu--free compound, against Mycobacterium smegmatis ATCC 607” value in data set [1] is 16800 mcg potency per mg. In the data set with ICR strain mice, the “Grade of pulmonary fibrosis, %” value came to 11%; the “Incidence of pulmonary fibrosis, %” value is 22%; the “Incidence: number of mice suffering from pulmonary fibrosis” value (shortened to “Incidence: number of mice suffering”) is 2/9; the “Grade: total score of pulmonary fibrosis/total number of test animal” value is reported as 3/27. Also, in the data set on ICR strain mice, the “Grade of pulmonary fibrosis, Ratio” value is reported as 0.13 and the “Incidence of pulmonary fibrosis, Ratio” value is recorded as 0.35. Moreover, in the data set with Bacillus subtilis, the “Antimicrobial potency of Cu--free compound, against Bacillus subtilis” value is listed as 13266 mcg potency per mg. Moreover, the “50% growth inhibition concentration (ID50) of Cu--free compound against cultured Hela cell” value with Hela S3 cells amounted to 0.54 µg/mL.

`Cc1c(N)nc(C(CC(N)=O)NCC(N)C(N)=O)nc1C(=O)NC(C(=O)NC(C)C(O)C(C)C(=O)NC(C(=O)NCCc1nc(-c2nc(C(=O)NCCCN(C)CCCN(Cc3ccc(OCc4ccc(Cl)c(Cl)c4)c(OCc4ccc(Cl)c(Cl)c4)c3)Cc3ccc(OCc4ccc(Cl)c(Cl)c4)c(OCc4ccc(Cl)c(Cl)c4)c3)cs2)cs1)C(C)O)C(OC1OC(CO)C(O)C(O)C1OC1OC(CO)C(O)C(OC(N)=O)C1O)c1cnc[nH]1` (stereo not drawn) [compound 49, 3-{N--Methyl-N--[3'(bis(3",4"-di(m,p-dichlorobenzyloxy)benzyl)amino)propyl]amino}propylaminoBLM]: the “Antimicrobial potency of Cu--free compound, against Mycobacterium smegmatis ATCC 607” value in data set [1] was found to be 23 mcg potency per mg. Further, in the data set with ICR strain mice, the “Grade of pulmonary fibrosis, %” value amounted to 0%; the “Incidence of pulmonary fibrosis, %” value is given as 0%; the “Incidence: number of mice suffering” value is 0/9; the “Grade: total score of pulmonary fibrosis/total number of test animal” value is 0/27. Besides, in the data set with ICR strain mice, the “Grade of pulmonary fibrosis, Ratio” value was found to be 0.00 and the “Incidence of pulmonary fibrosis, Ratio” value is 0.00. In addition, in the data set on Bacillus subtilis, the “Antimicrobial potency of Cu--free compound, against Bacillus subtilis” value amounted to 8 mcg potency per mg. In addition, the “50% growth inhibition concentration (ID50) of Cu--free compound against cultured Hela cell” value in the data set on Hela S3 cells came to 0.063 µg/mL.

On to `Cc1c(N)nc(C(CC(N)=O)NCC(N)C(N)=O)nc1C(=O)NC(C(=O)NC(C)C(O)C(C)C(=O)NC(C(=O)NCCc1nc(-c2nc(C(=O)NCCCN(C)CCCNCC3CCCCCCCCCCCC3)cs2)cs1)C(C)O)C(OC1OC(CO)C(O)C(O)C1OC1OC(CO)C(O)C(OC(N)=O)C1O)c1cnc[nH]1` (stereo not drawn) [compound 47, 3-{N--Methyl-N--[3'-(cyclotridecanylmethylamino)propyl]amino}propylaminoBLM], for which the “Antimicrobial potency of Cu--free compound, against Mycobacterium smegmatis ATCC 607” value in data set [1] is reported as 3915 mcg potency per mg. Also, in the data set with ICR strain mice, the “Grade of pulmonary fibrosis, %” value is recorded as 0%; the “Incidence of pulmonary fibrosis, %” value is 0%; the “Incidence: number of mice suffering” value is on record as 0/9; the “Grade: total score of pulmonary fibrosis/total number of test animal” value was 0/27. Also, in the data set with ICR strain mice, the “Grade of pulmonary fibrosis, Ratio” value came to 0.00 and the “Incidence of pulmonary fibrosis, Ratio” value stood at 0.00. Moreover, the “Antimicrobial potency of Cu--free compound, against Bacillus subtilis” value in the data set with Bacillus subtilis is listed as 1760 mcg potency per mg. Moreover, the “50% growth inhibition concentration (ID50) of Cu--free compound against cultured Hela cell” value with Hela S3 cells is 0.18 µg/mL.

For `Cc1c(N)nc(C(CC(N)=O)NCC(N)C(N)=O)nc1C(=O)NC(C(=O)NC(C)C(O)C(C)C(=O)NC(C(=O)NCCc1nc(-c2nc(C(=O)NCCCN3CCN(CCCNCc4ccc(Cl)cc4)CC3)cs2)cs1)C(C)O)C(OC1OC(CO)C(O)C(O)C1OC1OC(CO)C(O)C(OC(N)=O)C1O)c1cnc[nH]1` (stereo not drawn) [compound 44, 3-[4-(3-p-Chlorobenzylaminopropyl)piperazin-l-yl]propylaminoBLM], in data set [1], the “Antimicrobial potency of Cu--free compound, against Mycobacterium smegmatis ATCC 607” value is 11350 mcg potency per mg. Moreover, in the data set with ICR strain mice, the “Grade of pulmonary fibrosis, %” value is 0%; the “Incidence of pulmonary fibrosis, %” value is given as 0%; the “Incidence: number of mice suffering” value is 0/9; the “Grade: total score of pulmonary fibrosis/total number of test animal” value is 0/27. In the data set with ICR strain mice, the “Grade of pulmonary fibrosis, Ratio” value is listed as 0.00 and the “Incidence of pulmonary fibrosis, Ratio” value came to 0.00. In the data set on Bacillus subtilis, the “Antimicrobial potency of Cu--free compound, against Bacillus subtilis” value was 6080 mcg potency per mg. Moreover, the “50% growth inhibition concentration (ID50) of Cu--free compound against cultured Hela cell” value with Hela S3 cells stood at 0.31 µg/mL.

Take `Cc1c(N)nc(C(CC(N)=O)NCC(N)C(N)=O)nc1C(=O)NC(C(=O)NC(C)C(O)C(C)C(=O)NC(C(=O)NCCc1nc(-c2nc(C(=O)NCCCN(C)CCCN(Cc3ccc(OCc4ccc(Cl)cc4)c(OCc4ccc(Cl)cc4)c3)Cc3ccc(OCc4ccc(Cl)cc4)c(OCc4ccc(Cl)cc4)c3)cs2)cs1)C(C)O)C(OC1OC(CO)C(O)C(O)C1OC1OC(CO)C(O)C(OC(N)=O)C1O)c1cnc[nH]1` (stereo not drawn) [compound 48, 3-{N--Methyl-N--[3'-(bis(3",4"di(p-chlorobenzyloxy)benzyl)amino)propyl]amino}propylaminoBLM]: the “Antimicrobial potency of Cu--free compound, against Mycobacterium smegmatis ATCC 607” value in data set [1] is 14 mcg potency per mg. Moreover, in the data set with ICR strain mice, the “Grade of pulmonary fibrosis, %” value came out at 0%; the “Incidence of pulmonary fibrosis, %” value was determined as 0%; the “Incidence: number of mice suffering” value is on record as 0/9; the “Grade: total score of pulmonary fibrosis/total number of test animal” value is 0/27. Further, in the data set on ICR strain mice, the “Grade of pulmonary fibrosis, Ratio” value was 0.00 and the “Incidence of pulmonary fibrosis, Ratio” value came to 0.00. In the data set on Bacillus subtilis, the “Antimicrobial potency of Cu--free compound, against Bacillus subtilis” value stood at 8 mcg potency per mg. Also, the “50% growth inhibition concentration (ID50) of Cu--free compound against cultured Hela cell” value in the data set on Hela S3 cells is 0.058 µg/mL.

For `Cc1c(N)nc(C(CC(N)=O)NCC(N)C(N)=O)nc1C(=O)NC(C(=O)NC(C)C(O)C(C)C(=O)NC(C(=O)NCCc1nc(-c2nc(C(=O)NCCCN(C)CCCN(Cc3cc(OCc4ccccc4)c(OCc4ccccc4)c(OCc4ccccc4)c3)Cc3cc(OCc4ccccc4)c(OCc4ccccc4)c(OCc4ccccc4)c3)cs2)cs1)C(C)O)C(OC1OC(CO)C(O)C(O)C1OC1OC(CO)C(O)C(OC(N)=O)C1O)c1cnc[nH]1` (stereo not drawn) [compound 53, 3-{N--Methyl-N--[3'-(bis(3",4",5"-tribenzyloxybenzyl)amino)propyl]amino}propylaminoBLM], in data set [1], the “Antimicrobial potency of Cu--free compound, against Mycobacterium smegmatis ATCC 607” value was determined as 11 mcg potency per mg. For the same compound, in the data set with ICR strain mice, the “Grade of pulmonary fibrosis, %” value is 0%; the “Incidence of pulmonary fibrosis, %” value turned out to be 0%; the “Incidence: number of mice suffering” value is 0/9; the “Grade: total score of pulmonary fibrosis/total number of test animal” value is 0/27. In the data set with ICR strain mice, the “Grade of pulmonary fibrosis, Ratio” value turned out to be 0.00 and the “Incidence of pulmonary fibrosis, Ratio” value is on record as 0.00. Besides, in the data set with Bacillus subtilis, the “Antimicrobial potency of Cu--free compound, against Bacillus subtilis” value was 26 mcg potency per mg. Also, the “50% growth inhibition concentration (ID50) of Cu--free compound against cultured Hela cell” value with Hela S3 cells came out at 0.062 µg/mL.

As to `COc1ccc(COc2ccc(CN(CCCN(C)CCCNC(=O)c3csc(-c4csc(CCNC(=O)C(NC(=O)C(C)C(O)C(C)NC(=O)C(NC(=O)c5nc(C(CC(N)=O)NCC(N)C(N)=O)nc(N)c5C)C(OC5OC(CO)C(O)C(O)C5OC5OC(CO)C(O)C(OC(N)=O)C5O)c5cnc[nH]5)C(C)O)n4)n3)Cc3ccc(OCc4ccc(OC)cc4)c(OCc4ccc(OC)cc4)c3)cc2OCc2ccc(OC)cc2)cc1` (stereo not drawn) [compound 50], the “Antimicrobial potency of Cu--free compound, against Mycobacterium smegmatis ATCC 607” value in data set [1] came to 145 mcg potency per mg. For the same compound, in the data set on ICR strain mice, the “Grade of pulmonary fibrosis, %” value is 0%; the “Incidence of pulmonary fibrosis, %” value was 0%; the “Incidence: number of mice suffering” value was 0/9; the “Grade: total score of pulmonary fibrosis/total number of test animal” value is reported as 0/27. In the data set with ICR strain mice, the “Grade of pulmonary fibrosis, Ratio” value is recorded as 0.00 and the “Incidence of pulmonary fibrosis, Ratio” value came to 0.00. Further, the “Antimicrobial potency of Cu--free compound, against Bacillus subtilis” value with Bacillus subtilis was determined as 35 mcg potency per mg. The “50% growth inhibition concentration (ID50) of Cu--free compound against cultured Hela cell” value in the data set on Hela S3 cells came to 0.70 µg/mL.
